Assay results from patent US20040106793A1, “Oxazoles for treating cytokine mediated diseases” (SmithKline Beecham Corporation, priority 1993, published 2004).

Each compound was assayed on IL-1 produced by human monocytes (assay: Interleukin 1 (IL-1) production by LPS-stimulated human monocytes). Settings: human peripheral blood monocytes, compound 1 h before lipopolysaccharide (50 ng/ml), 24 h at 37° C.; IL-1 in supernatant by bioassay (EL-4) or ELISA.
Format: cell-based
Procedure: Human peripheral blood monocytes were isolated and purified from either fresh blood preparations from volunteer donors, or from blood bank buffy coats, according to the procedure of Colotta et al, J Immunol, 132, 936 (1984). These monocytes (1×10^6) were plated in 24-well plates at a concentration of 1-2 million/ml per well. The cells were allowed to adhere for 2 hours, after which time non-adherent cells were removed by gentle washing. Test compounds were then added to the cells for 1 h before the addition of lipopolysaccharide (50 ng/ml), and the cultures were incubated at 37° C. for an additional 24 h. At the end of this period, culture supernatants were removed and clarified of cells and all debris. Culture supernatants were then immediately assayed for IL-1 biological activity, either by the method of Simon et al., J. Immunol. Methods, 84, 85, (1985) (based on ability of IL-1 to stimulate a Interleukin 2 producing cell line (EL-4) to secrete IL-2, in concert with A23187 ionophore) or the method of Lee et al., J. ImmunoTherapy, 6 (1), 1-12 (1990) (ELISA assay).

| SMILES | inhibition of in vitro IL-1 produced by human monocytes |
| --- | --- |
| Fc1ccc(-c2ncoc2-c2ccncc2)cc1 [Example 7, 4-(4-Fluorophenyl)-5-(4-pyridyl)oxazole] | inhibitors |
| COc1cccc(-c2oc(C)nc2-c2ccncc2)c1 [Example 1, 5-(3-Methoxyphenyl)-2-methyl-4-(4-pyridyl)oxazole] | inhibitors |
| Cc1nc(-c2ccncc2)c(-c2ccc(F)cc2)o1 [Example 2, 5-(4-Fluorophenyl)-2-methyl-4-(4-pyridyl)oxazole] | inhibitors |
